Key:
[1] = test system: CVF-induced acute lung injury; assay: Cobra venom factor (CVF)-induced acute lung injury in the rat; assay type: in vivo
Protocol: Groups of rats were pretreated with either vehicle, SLN-OH (0.6 mg/Kg), or with SLX-OH (0.6 mg/Kg) 5 minutes prior to administration of either CVF or PBS. Each bar represents the mean of 6 animals and vertical lines represent the standard error of the mean.
Groups of rats were pretreated with either vehicle or Z at the indicated doses 5 minutes prior to administration of CVF or PBS. Each point represents the mean of 6 animals and vertical lines represent the standard error of the mean.
The intravenous injection of CVF produces intravascular complement activation which results in lung injury, defined as an increase in neutrophil accumulation within the lung, an increase in pulmonary vascular permeability and in lung hemorrhage. It is likely that intravascular complement activation results in the generation of a wide range of inflammatory mediators. Of particular relevance to the studies described here is generation of the split fifth complement component, C5a, which can stimulate the release of histamine from circulating basophils and tissue mast cells. […] The expression of selectins, including P-selectin, is a necessary first step in the process of leukocyte adherence to vascular endothelium.
Animals were dosed with different oligosaccharide preparations or phosphate buffered saline (PBS) five minutes before administration of cobra venom factor (20 units/Kg, i.v.). Included in this material was an aliquot of ^125 I-bovine serum albumin (0.5 μCi) and ^51 Cr labelled autologous red blood cells (0.5 μCi) for measuring plasma extravasation and hemorrhage respectively. Thirty minutes after administration of the cobra venom factor the animals were anesthetized with ketamine hydrochloride (10 mg/Kg) and exsanguinated via the posterior vena cava. The lung vasculature was then perfused through the right cardiac ventricle with 10 mL of PBS. The lungs were removed and the amount of radioactivity remaining within the tissue assessed with a gamma scintillation counter. Increased pulmonary vascular permeability was measured as the ratio of ^125 I in lung tissue compared with the amount present in 1 mL of venous blood obtained at the time of death. Lung hemorrhage was measured as the ratio of ^51 Cr in lung tissue compared with the amount present in 1 mL of venous blood obtained at the time of death. Neutrophil accumulation in lungs was determined by measuring the myeloperoxidase activity of lungs homogenized in PBS. Myeloperoxidase activity in lung supernatants was assayed by measuring the change in absorbance at 460 nm resulting from decomposition of H2 O2 in the presence of o-dianisidine

[2] = test system: IgA immune complex induced lung injury; assay: IgA immune complex-induced acute lung injury in the rat; assay type: in vivo, rat (male Long-Evans); settings: conclusion in words
Protocol: Groups of rats were dosed with either vehicle, SLN-OH (100 μpg), or with SLX-OH (100 μg) […] post induction of inflammation. Each bar represents the mean of 6 animals and vertical lines represent the standard error of the mean.
Adult male (300 g) specific pathogen-free Long-Evans rats purchased from Charles River Labs (Portage, Mich.) were employed in the studies. For the induction of IgG immune complex pulmonary inflammation rabbit polyclonal IgG rich in antibody to bovine serum albumin (antiBSA) was purchased from Organon Teknika (Westchester, PA). Intraperitoneal ketamine (10 mg/Kg) was administered for anesthesia. 2.5 mg of anti-BSA in a volume of 300 μl was instilled intratracheally via a small intratracheal catheter during inspiration after surgical exposure of the trachea. Intravenous injection of 10 mg BSA was injected intravenously to generate immune complex formation. Trace amounts of ^125 I-BSA and ^51 Cr-RBC were administered with the BSA as markers for plasma and RBC extravasation respectively. Rats were sacrificed 4 h later and lung injury was assessed by the ratio of radiolabelled albumin in the lungs relative to the circulation (permeability), the ratio of RBC in the lungs relative to the circulation (hemorrhage) and the amount of myeloperoxidase activity in a lung homogenate (neutrophil accumulation). For induction of IgA immune complex induced lung injury 1.2 mg of a murine myeloma IgA protein specific for dinitrophenol (DNP) was instilled intratracheally and 3.3 mg DNP-bovine serum albumin injected intravenously. Lung injury was assessed in the same manner described for IgG-induced lung injury.
SLX-OH, Z, the non-fucosylated control oligosaccharide SLN, or an equivalent volume of PBS were injected intravenously in three equally divided doses at 2, 2.5, and 3 h following deposition of immune complexes. This schedule for injections was selected since it coincides with the time during which rapid expression of E-selectin occurs in the pulmonary vasculature.

[3] = test system: dermal and pulmonary models of inflammation; assay: Dermal and pulmonary models of inflammation: leukocyte accumulation; assay type: in vivo
[4] = test system: coronary vascular endothelium; assay: Adherence of cat PMNs to coronary endothelium in vitro; assay type: cell-based
Protocol: (§1) Endothelial dependent relaxation of coronary artery rings was determined by measuring the acetylcholine-induced relaxation of rings previously contracted with the thromboxane A2 mimetic U46619. Data are expressed as percentage relaxation. Creatinine kinase enzyme levels were measured immunochemically in plasma samples collected at the end of the reperfusion period. The adherence of PMNs to sections of coronary artery was measured in vitro using fluorescene labelled autologous cat neutrophils.

creatinine kinase = assay: Plasma creatinine kinase after myocardial ischemia-reperfusion in cats; assay type: in vivo, cat; settings: 10 mg/Kg i.v.; control 25±3, P<0.01
Protocol: (§2) A model of myocardial ischemia and reperfusion injury in cats was performed according to the methods of Tsao et al (Circulation 82:1402-1412 (1990), which is incorporated herein by reference. Briefly, male cats (2.5-3.5 Kg) were anesthetized with sodium pentobarbital (30 mg/Kg, i.v.). An intratracheal tube was inserted through a mid-line incision and all cats were given intermittent positive pressure ventilation by a Harvard small animal respirator. A polyethylene catheter was inserted into the external jugular vein and the right […] was cannulated and connected to a Statham P23AC pressure transducer for the measurement of arterial blood pressure. A midline thoracotomy was performed, the pericardium was opened and the heart was exposed. A 2-0 silk suture was carefully placed around the left anterior descending artery (LAD) 10-12 mm from its origin. […]
as §1

coronary artery rings = assay: Acetylcholine-induced endothelial dependent relaxation of coronary artery rings from ischemic-reperfused cats; assay type: in vivo, cat; settings: 10 mg/Kg i.v.; control 22±6%, P<0.01
Protocol: as §2, §1

[5] = test system: myocardial ischemia-reperfusion injury in the cat heart; assay: Myocardial ischemia-reperfusion injury in cats: ischemic myocardium; assay type: in vivo, cat (male); settings: 10 mg/Kg i.v.; control 35±4%, P<0.01
Protocol: A model of myocardial ischemia and reperfusion injury in cats was performed according to the methods of Tsao et al (Circulation 82:1402-1412 (1990), which is incorporated herein by reference. Briefly, male cats (2.5-3.5 Kg) were anesthetized with sodium pentobarbital (30 mg/Kg, i.v.). An intratracheal tube was inserted through a mid-line incision and all cats were given intermittent positive pressure ventilation by a Harvard small animal respirator. A polyethylene catheter was inserted into the external jugular vein and the right […] was cannulated and connected to a Statham P23AC pressure transducer for the measurement of arterial blood pressure. A midline thoracotomy was performed, the pericardium was opened and the heart was exposed. A 2-0 silk suture was carefully placed around the left anterior descending artery (LAD) 10-12 mm from its origin. After a 30 minute period of stabilization myocardial ischemia was initiated by complete ligation of the LAD for 1.5 hours of ischemia followed by 4.5 hours of reperfusion. Z (10 mg/Kg in PBS) or PBS alone were administered intravenously 10 minutes prior to the initiation of reperfusion.
Area at risk was determined by reocclusion of the LAD at the end of the reperfusion period followed by the injection of Evans blue dye into the left atrium. The area of risk was, therefore, determined by negative staining.

[6] = dose range 0.15 to 1.5 mg/Kg (FIG. 17)

| Structure (SMILES) | reduction of hemorrhage [1, 6] [%] | reduction of neutrophil MPO content [1, 6] [%] | reduction of permeability values [1, 6] [%] | dose at which protective effects plateau ([1]; rat, in vivo) [mg/kg] | effect on IgA immune complex-induced neutrophil accumulation and pathological sequelae [2] | inhibition of leukocyte accumulation [3] | adhesion of cat PMNs to thrombin stimulated coronary vascular endothelium ([4]; 250μM, thrombin 2 unit/mL) | adherence of PMNs to coronary endothelium from treated animals ([4]; endothelium from treated animals versus control animals) | plasma concentration of creatinine kinase (creatinine kinase) [IU/mg protein] | endothelial dependent relaxation to acetylcholine (coronary artery rings) [%] | extent of myocardial ischemia, of the area at risk [5] [%] | effect on CVF-induced permeability, hemorrhage, MPO / lung injury ([1]; in words, prior to CVF, 30 minutes) |
| --- | --- | --- | --- | --- | --- | --- | --- | --- | --- | --- | --- | --- |
| CCO[C@@H]1O[C@H](CO)[C@H](O)[C@H](O[C@@H]2O[C@H](CO)[C@@H](O[C@@H]3O[C@H](CO)[C@H](O)[C@H](O[C@]4(C(=O)O)C[C@H](O)[C@@H](NC(C)=O)[C@H]([C@H](O)[C@H](O)CO)O4)[C@H]3O)[C@H](O[C@@H]3O[C@@H](C)[C@@H](O)[C@@H](O)[C@@H]3O)[C@H]2NC(C)=O)[C@H]1O [Z, Ethyl(sodium(5-acetamido-3,5-dideoxy-α-D-glycero-D-galacto-2-nonulopyanosylonate))-(2-3)-O-(β-D-galactopyranosyl)-(1-4)-O-((α-L-fucopyranosyl)-(1-3))-O-(2-acetamido-2-deoxy-β-D-glucopyranosyl)-(1-3)-O-β-D-galactopyranoside] | 47 | 49 | 67 | 0.6 | not IgA | do not provide evidence of the ability of Z to inhibit leukocyte accumulation | blocked the adhesion of cat PMNs | less than that determined in control animals | 7±1 | 73±7 | 6±1 |  |
| CC(=O)NC1C(O)OC(CO)C(OC2OC(CO)C(O)C(OC3(C(=O)O)CC(O)C(NC(C)=O)C(C(O)C(O)CO)O3)C2O)C1O (stereo not drawn) [SLN, reference compound] |  |  |  |  |  |  |  |  |  |  |  | did not inhibit CVF-induced neutrophil accumulation or CVF-induced lung injury |

From patent US5753631A, “Intercellular adhesion mediators” (Cytel Corporation, priority 1995, dated 1998)
